# Experimental data from paper PMC8875489, “Pharmaceutical and Safety Profile Evaluation of Novel Selenocompounds with Noteworthy Anticancer Activity” (Pharmaceutics, 2022).
# Like-named read-outs stand apart in the source and are kept apart here.
# Assays:
# [1] = Water solubility of methylseleno-aspirin (literature); type: physicochemical; conditions: recalculated taking molecular weight into account
# Excerpt: The low solubility was not a surprise: according to the literature, the majority of the synthetic organic selenocompounds are poorly soluble in water. […] (or 0.0568 g/L when taking its molecular weight into account). […] To improve the solubility of water-insoluble anticancer drug candidates, the use of solubilizers, such as surfactants, organic solvents, cyclodextrins, lipids, and pH modifiers, is a common approach. Even though lowly water-soluble drugs can become moderately soluble if a suitable amount of additives is used, the usage of the additives need to be kept below their toxicity rate. Moreover, the usage of solubilizers can cause drug instability and is limited due to undesirable effects.
# [2] = design: method as in PMID 33260948; conditions: cited from earlier work
smiles,measurement,setting,value
C[Se]C(=O)c1ccccc1OC(C)=O [methylseleno-aspirin],water solubility,[1],56.8 µg/mL
same,water solubility,[2],220 µM
